The term IC50 denotes the concentration that gives 50% inhibition.

What all share (type): biochemical
The target in one assay is VEGFR-2 kinase (Homo sapiens (Human), UniProt P35968). Put plainly: Assay of small molecular compounds for inhibiting the activity of VEGFR-2 kinase (LANCE TR-FRET). The following applies: read-out: VEGFR2 IC50. Summed up: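 LANCE TR-FRET with human VEGFR-2 (2× stock 0.5 nM) preincubated 30 min with compound (final 2500 to 0.042 nM, 11-point 3-fold), then ULight-JAK-1 (Tyr1023) peptide/ATP added (4× stocks 200 nM/40 μM). Reaction 60 min room temperature, 4% DMSO; IC50 from inhibition-rate curve.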
VEGFR-2 kinase, sequence (P35968 20-1356): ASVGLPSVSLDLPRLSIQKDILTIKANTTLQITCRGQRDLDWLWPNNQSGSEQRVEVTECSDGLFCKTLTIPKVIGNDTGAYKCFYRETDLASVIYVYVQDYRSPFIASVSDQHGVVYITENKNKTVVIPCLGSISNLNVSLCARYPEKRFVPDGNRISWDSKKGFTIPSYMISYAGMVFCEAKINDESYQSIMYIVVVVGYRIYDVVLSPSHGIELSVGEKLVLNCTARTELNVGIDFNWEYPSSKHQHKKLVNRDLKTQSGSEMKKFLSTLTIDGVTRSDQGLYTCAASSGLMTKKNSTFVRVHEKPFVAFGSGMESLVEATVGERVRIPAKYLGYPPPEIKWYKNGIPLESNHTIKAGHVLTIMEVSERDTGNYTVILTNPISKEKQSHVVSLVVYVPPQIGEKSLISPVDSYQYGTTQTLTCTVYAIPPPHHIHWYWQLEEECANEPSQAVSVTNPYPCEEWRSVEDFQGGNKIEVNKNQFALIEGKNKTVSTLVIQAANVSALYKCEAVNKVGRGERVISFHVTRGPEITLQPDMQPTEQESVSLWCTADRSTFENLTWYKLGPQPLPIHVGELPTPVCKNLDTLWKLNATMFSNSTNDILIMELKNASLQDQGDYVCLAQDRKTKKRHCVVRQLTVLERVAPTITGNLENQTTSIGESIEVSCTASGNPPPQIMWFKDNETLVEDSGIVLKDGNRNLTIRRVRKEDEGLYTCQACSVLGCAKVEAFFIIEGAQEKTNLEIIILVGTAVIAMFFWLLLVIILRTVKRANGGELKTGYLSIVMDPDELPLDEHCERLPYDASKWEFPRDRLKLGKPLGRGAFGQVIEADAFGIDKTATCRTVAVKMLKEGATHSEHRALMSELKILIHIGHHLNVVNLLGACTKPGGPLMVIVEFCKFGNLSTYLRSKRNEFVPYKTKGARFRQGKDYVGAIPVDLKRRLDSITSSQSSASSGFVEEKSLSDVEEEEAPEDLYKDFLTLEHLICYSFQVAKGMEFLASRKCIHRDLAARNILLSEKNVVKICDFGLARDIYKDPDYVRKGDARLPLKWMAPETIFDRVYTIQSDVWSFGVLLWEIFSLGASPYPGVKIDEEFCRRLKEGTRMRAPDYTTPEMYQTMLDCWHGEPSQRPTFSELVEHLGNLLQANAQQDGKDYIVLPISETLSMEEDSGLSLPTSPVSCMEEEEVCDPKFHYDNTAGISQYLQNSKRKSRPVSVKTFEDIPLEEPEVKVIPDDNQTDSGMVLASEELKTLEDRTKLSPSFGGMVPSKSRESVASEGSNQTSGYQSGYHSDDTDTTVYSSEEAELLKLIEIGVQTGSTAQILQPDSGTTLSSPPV
Background: Time-resolved FRET reads energy transfer from a long-lived donor to a nearby acceptor.

For a further assay, the target named is TRKA kinase (Homo sapiens (Human), UniProt P04629). The assay is described as follows: Assay of small molecular compounds for inhibiting the activity of TRKA kinase (LANCE TR-FRET). Summed up: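 TRKA (supplied as 2 nM 2× solution) was pre-reacted with compounds for 5 min at room temperature before a 4× ULight-TK peptide/ATP mix (400 nM/40 μM) started the 60-min dark reaction at 1% DMSO. After stop and 60-min detection, TR-FRET was read.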
TRKA kinase, sequence (P04629 33-796): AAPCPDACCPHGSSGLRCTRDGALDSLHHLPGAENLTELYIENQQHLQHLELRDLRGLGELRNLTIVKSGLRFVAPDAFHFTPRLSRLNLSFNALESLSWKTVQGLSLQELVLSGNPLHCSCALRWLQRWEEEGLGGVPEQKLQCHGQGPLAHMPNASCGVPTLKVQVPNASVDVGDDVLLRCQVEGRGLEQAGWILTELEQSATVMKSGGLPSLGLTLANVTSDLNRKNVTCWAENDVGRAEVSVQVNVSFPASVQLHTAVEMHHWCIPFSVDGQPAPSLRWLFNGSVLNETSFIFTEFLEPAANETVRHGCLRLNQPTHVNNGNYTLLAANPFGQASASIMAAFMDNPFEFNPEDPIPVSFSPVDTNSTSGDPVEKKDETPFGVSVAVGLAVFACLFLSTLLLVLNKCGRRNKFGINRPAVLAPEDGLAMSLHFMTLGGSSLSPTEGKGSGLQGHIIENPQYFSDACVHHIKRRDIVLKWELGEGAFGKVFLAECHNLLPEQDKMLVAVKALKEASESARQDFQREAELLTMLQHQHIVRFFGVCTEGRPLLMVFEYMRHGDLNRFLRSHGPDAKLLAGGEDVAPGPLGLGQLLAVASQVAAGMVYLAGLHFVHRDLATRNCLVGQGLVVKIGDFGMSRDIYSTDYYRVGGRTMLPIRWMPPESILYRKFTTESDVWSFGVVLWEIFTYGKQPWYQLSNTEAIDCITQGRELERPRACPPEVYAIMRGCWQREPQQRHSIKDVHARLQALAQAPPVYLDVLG

For another assay, the target named is MER kinase (Homo sapiens (Human), UniProt Q12866). Put plainly: Assay of small molecular compounds for inhibiting the activity of MER kinase (LANCE TR-FRET). In a few lines:
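LANCE TR-FRET readout of ULight-poly GT phosphorylation by MER kinase; compound final range 0.042-2500 nM, 3-fold steps, 5 min enzyme preincubation. Reaction 60 min at room temperature in the dark with substrate/ATP (4× at 200 nM/20 μM), 1% DMSO, then stopped and developed 60 min; IC50 by curve fit.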

MER kinase, sequence (Q12866 21-999): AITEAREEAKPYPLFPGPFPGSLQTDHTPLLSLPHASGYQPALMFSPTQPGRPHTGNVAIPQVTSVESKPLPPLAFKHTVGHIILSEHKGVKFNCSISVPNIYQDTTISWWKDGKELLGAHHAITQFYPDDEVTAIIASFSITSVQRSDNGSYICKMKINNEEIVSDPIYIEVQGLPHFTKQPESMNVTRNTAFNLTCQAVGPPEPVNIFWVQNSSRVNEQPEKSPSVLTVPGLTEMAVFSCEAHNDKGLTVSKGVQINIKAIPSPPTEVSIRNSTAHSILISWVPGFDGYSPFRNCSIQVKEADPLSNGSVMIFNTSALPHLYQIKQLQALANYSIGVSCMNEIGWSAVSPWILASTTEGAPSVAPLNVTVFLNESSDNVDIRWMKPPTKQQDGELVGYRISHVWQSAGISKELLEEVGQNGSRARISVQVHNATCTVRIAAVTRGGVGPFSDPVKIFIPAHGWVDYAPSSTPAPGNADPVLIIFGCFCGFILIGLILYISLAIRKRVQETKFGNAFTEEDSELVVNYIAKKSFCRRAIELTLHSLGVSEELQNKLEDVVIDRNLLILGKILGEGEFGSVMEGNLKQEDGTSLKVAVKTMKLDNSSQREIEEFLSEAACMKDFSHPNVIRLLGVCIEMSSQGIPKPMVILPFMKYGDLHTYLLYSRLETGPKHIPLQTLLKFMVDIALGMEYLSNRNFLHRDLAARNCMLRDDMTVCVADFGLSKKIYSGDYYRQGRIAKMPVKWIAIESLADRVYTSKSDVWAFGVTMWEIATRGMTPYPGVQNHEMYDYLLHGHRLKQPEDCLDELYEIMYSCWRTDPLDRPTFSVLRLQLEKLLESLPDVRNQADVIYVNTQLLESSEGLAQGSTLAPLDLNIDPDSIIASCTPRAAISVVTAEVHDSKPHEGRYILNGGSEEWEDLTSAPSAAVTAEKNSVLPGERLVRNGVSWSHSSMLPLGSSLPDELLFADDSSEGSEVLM

For `CCOc1ccn(-c2ccc(F)cc2)c(=O)c1C(=O)Nc1ccc(Oc2ccnc3cc(OCCCN4CCCC4)c4c(c23)OCCO4)c(F)c1` [Example 52, N-(4-((5-(3-(pyrrolidin-1-yl)propoxy)-2,3-dihydro-[1,4]dioxino[2,3-f]quinolin-10-yl)oxy)-3-fluorophenyl)-4-ethoxy-1-(4-fluorophenyl)-2-oxo-1,2-dihydropyridine-3-carboxamide], the IC50 is not above 50 nM on VEGFR-2 kinase, less than 50 nM at TRKA kinase and not above 50 nM on MER kinase.
In the case of `COCCCOc1cc2nccc(Oc3ccc(NC(=O)c4cn(C)c(=O)n(-c5ccc(F)cc5)c4=O)cc3F)c2c2c1OCCO2` [Example 80, N-(3-fluoro-4-((5-(3-methoxypropoxy)-2,3-dihydro-[1,4]dioxino[2,3-f]quinolin-10-yl)oxy)phenyl)-3-(4-fluorophenyl)-1-methyl-2,4-dioxo-1,2,3,4-tetrahydropyrimidine-5-carboxamide], the IC50 at VEGFR-2 kinase was 500 to 5000 nM; at TRKA kinase, less than 50 nM; on MER kinase it was not above 50 nM.
For `CCOc1ccn(-c2ccc(F)cc2)c(=O)c1C(=O)Nc1ccc(Oc2ccnc3cc(OCCCN4CCS(=O)(=O)CC4)c4c(c23)OCCO4)c(F)c1` [Example 51, N-(4-((5-(3-(1,1-dioxidothiomorpholino)propoxy)-2,3-dihydro-[1,4]dioxino[2,3-f]quinolin-1 0-yl)oxy)-3-fluorophenyl)-4-ethoxy-1-(4-fluorophenyl)-2-oxo-1,2-dihydropyridine-3-carboxamide] the same measures were not above 50 nM, less than 50 nM and not above 50 nM.
For `CC(C)n1cc(C(=O)Nc2ccc(Oc3ccnc4cc(OCCCN5CCC(C)(N)CC5)c5c(c34)OCCO5)c(F)c2)c(=O)n(-c2ccc(F)cc2)c1=O` [Example 93, N-(3-fluoro-4-((5-(3-(4-amino-4-methylpiperidin-1-yl)propoxy)-2,3-dihydro-[1,4]dioxino[2,3-f]quinolin-10-yl)oxy)phenyl)-3-(4-fluorophenyl)-1-isopropyl-2,4-dioxo-1,2,3,4-tetrahydropyrimidine-5-carboxamide] the same measures were 50 to 500 nM, less than 50 nM and not above 50 nM.
On the same counts, the results for `CCOc1ccn(-c2ccc(F)cc2)c(=O)c1C(=O)Nc1ccc(Oc2ncnc3cc(OC)c4c(c23)OCCO4)c(F)c1` [Example 3, N-(3-fluoro-4-((5-methoxy-2,3-dihydro-[1,4]dioxino[2,3-f]quinazolin-10-yl)oxy)phenyl)-1-(4-fluorophenyl)-4-ethoxy-2-oxo-1,2-dihydropyridine-3-carboxamide] are 50 to 500 nM, less than 50 nM and not above 50 nM.
As for `CCOc1ccn(-c2ccc(F)cc2)c(=O)c1C(=O)Nc1ccc(Oc2ccnc3cc(OCCCN4CCC(C)(O)CC4)c4c(c23)OCCO4)c(F)c1` [Example 69, N-(4-((5-(3-(4-hydroxy-4-methylpiperidin-1-yl)propoxy)-2,3-dihydro-[1,4]dioxino[2,3-f]quinolin-10-yl)oxy)-3-fluorophenyl)-4-ethoxy-1-(4-fluorophenyl)-2-oxo-1,2-dihydropyridine-3-carboxamide], the IC50 at VEGFR-2 kinase is not above 50 nM; against TRKA kinase, less than 50 nM; against MER kinase, not above 50 nM.
Turning to `CCOc1ccn(-c2ccc(F)cc2)c(=O)c1C(=O)Nc1ccc(Oc2ccnc3cc(OC4CCOC4)c4c(c23)OCCO4)c(F)c1` (stereo not drawn) [Example 65, N-(4-((5-((tetrahydrofuran-3-yl)oxy)-2,3-dihydro-[1,4]dioxino[2,3-f]quinolin-10-yl)oxy)-3-fluorophenyl)-4-ethoxy-1-(4-fluorophenyl)-2-oxo-1,2-dihydropyridine-3-carboxamide], the results for the IC50 at VEGFR-2 kinase, on TRKA kinase and against MER kinase were 50 to 500 nM, less than 50 nM and not above 50 nM, respectively.
On the same counts, the results for `CCOc1ccn(-c2ccc(F)cc2)c(=O)c1C(=O)Nc1ccc(Oc2ccnc3cc(OCCCO)c4c(c23)OCCO4)c(F)c1` [Example 54, N-(4-((5-(3-hydroxypropoxy)-2,3-dihydro-[1,4]dioxino[2,3-f]quinolin-10-yl)oxy)-3-fluorophenyl)-4-ethoxy-1-(4-fluorophenyl)-2-oxo-1,2-dihydropyridine-3-carboxamide] are not above 50 nM, less than 50 nM and not above 50 nM.
With `CCn1cc(C(=O)Nc2ccc(Oc3ccnc4cc(OCCOC)c5c(c34)OCCO5)c(F)c2)c(=O)n(-c2ccc(F)cc2)c1=O` [Example 44, N-(3-fluoro-4-((5-(2-methoxyethoxy)-2,3-dihydro-[1,4]dioxino[2,3-f]quinolin-10-yl)oxy)phenyl)-3-(4-fluorophenyl)-1-ethyl-2,4-dioxo-1,2,3,4-tetrahydropyrimidine-5-carboxamide], the concentration for half-maximal inhibition (IC50) was 50 to 500 nM at VEGFR-2 kinase, less than 50 nM against TRKA kinase and not above 50 nM at MER kinase.

Values taken from patent US12202835B2, “Substituted aromatic ring-linked dioxinoquinazolines and dioxinoquinolines as kinase inhibitors” (BEIJING SCITECH-MQ PHARMACEUTICALS LIMITED, priority 2018, dated 2025).
